According to patent publication US8163709B2, “TAK1-D mediated induction of cell death in human cancer cells by specific sequence short double-stranded RNAS” (Board of Regents of the University of Texas System, priority 2008, dated 2012):

Tests used:
[1] = test system: H460 xenograft tumors; test: H460 xenograft tumor growth after intratumoral injection; type: in vivo
Method: In order to test whether the proposed treatment approach for NSCLC using dsRNA-mediated activation of TAK1-D is feasible in vivo H460 xenograft tumors grown in athymic NCr nu/nu mice were treated with by intratumoral injection of a liposomal dsRNA preparation. About 10 days after subcutaneous injection of […] H460 cells into the left hind leg of the animals tumors had reached a volume of about 300 μl and were injected with 50 μl of liposomal control RNA or active RNA si5. Liposomes consisting of DOTAP and Cholesterol (1:1) were prepared by sonication and extrusion. RNA was bound to the polycation protamine and liposome/polycation/RNA nanoparticles were prepared by mixing the protamine RNA complex with the liposomes. Finally 4 μg of RNA were injected in a volume of 50 μl on day 0 and 1. […].

[2] = molecular target: T1, TAK1-D (Homo sapiens, UniProt O43318); test: Subcellular localization of TAK1-D in H460 cells (fractionation, immunofluorescence); type: cell-based; parameters: endogenous in cells; host or cells: NCI-H460
T1 sequence (O43318 1-491 isoform O43318-4): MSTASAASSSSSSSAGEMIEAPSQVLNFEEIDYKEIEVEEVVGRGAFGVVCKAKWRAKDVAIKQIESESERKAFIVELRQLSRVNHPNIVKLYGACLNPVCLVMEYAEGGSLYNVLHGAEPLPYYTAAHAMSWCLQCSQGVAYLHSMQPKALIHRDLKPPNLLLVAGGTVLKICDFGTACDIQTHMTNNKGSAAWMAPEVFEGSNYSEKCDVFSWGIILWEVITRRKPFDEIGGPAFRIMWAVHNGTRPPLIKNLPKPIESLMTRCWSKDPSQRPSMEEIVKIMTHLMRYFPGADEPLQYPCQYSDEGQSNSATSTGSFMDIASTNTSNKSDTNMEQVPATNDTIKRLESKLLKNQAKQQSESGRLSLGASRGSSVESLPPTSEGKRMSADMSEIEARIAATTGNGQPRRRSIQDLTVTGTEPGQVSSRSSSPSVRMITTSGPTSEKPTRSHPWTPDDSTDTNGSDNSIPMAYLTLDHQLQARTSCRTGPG
Method: Subcellular fractionation. About […] H460 cells growing in a 10 cm dish were transfected with 20 nM dsRNA si5 or si6. […] A crude nuclear pellet (P.7) was obtained by centrifugation at 700 g and 4° C. for 5 minutes. The supernatant was centrifuged at 10,000 g and 4° C. for 30 minutes producing the P10 pellet and finally separated by ultracentrifugation (Sorvall 90SE ultracentrifuge and Sorvall AH-629 rotor) at 150,000 g and 4° C. for 1 hour into pellet (P150) and supernatant (S150). Proteins from the S150 fraction were concentrated by precipitation with 10% trichloroacetic acid (TCA). All pellets were dissolved in SDS sample buffer.
Immunofluorescence. H460 cells stably expressing TAK1-D fused on its c-terminus to a FLAG tag were generated as described above for the K36W mutant. Cells were transfected with 20 nM si5 or si6 and fixed in 4% formaldehyde 6 h later. After 15 min of fixation at room temperature cells were washed 3 times in PBS and permeabilized in methanol at −20° C. for 10 min. After one wash in PBS slides were blocked for 1 hour at room temperature in PBS containing 1% BSA. […] After three 5 min washes in PBS cells were visualized by fluorescence microscopy. […]

[3] = test system: H460 cells; test: BrdU pulse labeling and flow cytometry of H460 cells; type: cell-based, human
Method: FIGS. 10A-D: Reaction of NCI-H460 cells to activation of p38 MAPK and SAPK/JNK. (FIG. 10A) BrdU labeling was used to determine the amount of NCI-H460 cells in the S phase of the cell cycle. Cells were pulse labeled with 100 μM BrdU for 15 minutes (0 and 4 h) or 10 μM for 1 h (24 h). Dot blots show DNA content versus BrdU signal. The number of S phase cells decreases within a few hours after treatment of cells with siRNA si5. (FIG. 10B) Flow cytometry dot blots, showing the cellular DNA content versus the amount of cleaved Caspase 3. Within 24 h after exposure to siRNA si5 cells in G1 as well as in the S phase of the cell cycle show Caspase 3 activation. (FIG. 10C) Activation of Caspase 3 leads to PARP cleavage and to (FIG. 10D) nuclear chromatin condensation visible in Hoechst 33342 stained NCI-H460 cells, typical of apoptosis.
To test this hypothesis, H460 cells were pulse labeled with BrdU for 15 min at various time points after treatment with siRNA si5 and analyzed by flow cytometry immediately afterwards. […] In particular, it can be seen that the fraction of cells in the S phase of the cell cycle drops from 48% in untreated cells to 27% 4 h after incubating the cells with 20 nM siRNA si5.

Question: Which results are given for “si5: 21-mer siRNA against TLK1 mRNA: GGCUUUUGACCUUUAUGAAtt (SEQ ID NO: 2) / ttCCGAAAACUGGAAAUACUU (SEQ ID NO: 3) (sense GGCUUUUGACCUUUAUGAATT; antisense TTCCGAAAACUGGAAAUACUU; chemistry not given here; one strand is listed 3' to 5')”?
Answer: normal tissue toxicity (necrosis of skin or tumor vascular system) ([1]; intratumoral liposomal preparation): no sign of normal tissue toxicity; tumor growth kinetics ([1]; intratumoral, liposome (DOTAP:Cholesterol)/protamine/RNA nanoparticles, 4 μg RNA day 0 and 1): tumor growth delay; colocalization of FLAG-TAK1-D and ribosomes (S6) ([2]; H460, 20 nM, 6 h, immunofluorescence): increased colocalization; amount of TAK1-D in the 150,000 g pellet ([2]; H460, 4 h, compared to control si6): increased; fraction of cells in the S phase of the cell cycle ([3]; H460, 4 h after 20 nM, untreated cells 48%): 27%; DNA synthesis ([3]; H460, 24 h after treatment): ceased almost completely; cell cycle arrest ([3]; NCI-H460, first 24 h): arrest of NCI-H460 cells in the G1, S, and G2 phase of the cell cycle
